Laboratory results reported in ChEMBL document CHEMBL1909046, “DrugMatrix in vitro pharmacology data”.

Assays:
[1] = DRUGMATRIX: Leukotriene, BLT (LTB4) radioligand binding (ligand: [3H]LTB4); assay type: cell membranes, Membrane; settings: u-937; Not Active = under 50% inhibition at 10 µM
Carbonic anhydrase 2 = Carbonic anhydrase 2 (Homo sapiens, UniProt P00918); assay: DRUGMATRIX: Carbonic Anhydrase II enzyme inhibition (substrate: 4-Nitrophenyl acetate (4-NPA)); assay type: tissue-based, Erythrocyte; settings: erythrocyte; Not Active = under 50% inhibition at 10 µM
[2] = biological target: cGMP-specific 3',5'-cyclic phosphodiesterase (Homo sapiens, UniProt O76074); assay: DRUGMATRIX: Phosphodiesterase PDE5 enzyme inhibition (substrate: [3H]cGMP + cGMP); assay type: tissue-based, Platelet; settings: platelet; Not Active = under 50% inhibition at 10 µM
Cytochrome P450 2D6 = Cytochrome P450 2D6 (Homo sapiens, UniProt P10635); settings: bti-tn-5b1-4; note: in other assays of this panel Not Active means under 50% inhibition at 10 µM
[3] = biological target: T1, Cysteinyl leukotriene receptor 1 (Homo sapiens, UniProt Q9Y271); assay type: cell membranes, CHO-K1, Membrane; settings: cho-k1; note: in other assays of this panel Not Active means under 50% inhibition at 10 µM
T1 sequence (Q9Y271 whole entry): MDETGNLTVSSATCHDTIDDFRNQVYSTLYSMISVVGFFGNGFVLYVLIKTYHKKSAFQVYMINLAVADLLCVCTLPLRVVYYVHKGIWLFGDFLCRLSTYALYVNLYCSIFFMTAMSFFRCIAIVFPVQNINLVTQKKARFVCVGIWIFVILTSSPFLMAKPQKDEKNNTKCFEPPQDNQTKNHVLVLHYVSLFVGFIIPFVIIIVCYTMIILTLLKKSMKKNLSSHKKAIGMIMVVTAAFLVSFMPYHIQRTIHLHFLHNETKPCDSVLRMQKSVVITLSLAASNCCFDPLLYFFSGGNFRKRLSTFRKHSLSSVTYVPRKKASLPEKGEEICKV

[4] = biological target: Protein kinase C alpha type (Homo sapiens, UniProt P17252); assay type: cell-based; settings: sf9;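 note: inhibition of PKCalpha kinase activity measured in an enzyme assay with histone as the phosphorylation substrate; in other assays of this panel Not Active means under 50% inhibition at 10 µM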
[5] = DRUGMATRIX: Glutamate, AMPA radioligand binding (ligand: [3H] AMPA); assay type: cell membranes, Rattus norvegicus, Wistar, Cerebral cortex, Membrane; settings: Not Active = under 50% inhibition at 10 µM
[6] = biological target: T2, Neuropeptide Y receptor type 1 (Homo sapiens, UniProt P25929); assay type: cell membranes, Membrane; settings: sk-n-mc; note: in other assays of this panel Not Active means under 50% inhibition at 10 µM
T2 sequence (P25929 whole entry): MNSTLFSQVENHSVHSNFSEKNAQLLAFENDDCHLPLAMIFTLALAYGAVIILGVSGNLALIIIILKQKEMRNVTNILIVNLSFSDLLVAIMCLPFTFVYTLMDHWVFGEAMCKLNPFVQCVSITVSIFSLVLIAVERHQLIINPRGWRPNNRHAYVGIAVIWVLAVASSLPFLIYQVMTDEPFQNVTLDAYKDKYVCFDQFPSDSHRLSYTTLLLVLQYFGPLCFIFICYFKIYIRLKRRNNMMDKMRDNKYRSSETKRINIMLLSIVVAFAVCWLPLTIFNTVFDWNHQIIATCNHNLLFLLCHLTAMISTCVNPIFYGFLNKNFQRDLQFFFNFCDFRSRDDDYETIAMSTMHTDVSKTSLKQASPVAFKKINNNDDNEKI

[7] = DRUGMATRIX: Calcium Channel Type L, Benzothiazepine radioligand binding (ligand: [3H] Diltiazem); assay type: cell membranes, Rattus norvegicus, Wistar, Brain, Membrane; settings: Not Active = under 50% inhibition at 10 µM
[8] = biological target: T3, Amine oxidase [flavin-containing] A (Homo sapiens, UniProt P21397); assay: DRUGMATRIX: Monoamine Oxidase MAO-A enzyme inhibition (substrate: Kynuramine); set-up: species or system BTI-TN-5B1-4; settings: bti-tn-5b1-4; Not Active = under 50% inhibition at 10 µM
T3 sequence (P21397 whole entry): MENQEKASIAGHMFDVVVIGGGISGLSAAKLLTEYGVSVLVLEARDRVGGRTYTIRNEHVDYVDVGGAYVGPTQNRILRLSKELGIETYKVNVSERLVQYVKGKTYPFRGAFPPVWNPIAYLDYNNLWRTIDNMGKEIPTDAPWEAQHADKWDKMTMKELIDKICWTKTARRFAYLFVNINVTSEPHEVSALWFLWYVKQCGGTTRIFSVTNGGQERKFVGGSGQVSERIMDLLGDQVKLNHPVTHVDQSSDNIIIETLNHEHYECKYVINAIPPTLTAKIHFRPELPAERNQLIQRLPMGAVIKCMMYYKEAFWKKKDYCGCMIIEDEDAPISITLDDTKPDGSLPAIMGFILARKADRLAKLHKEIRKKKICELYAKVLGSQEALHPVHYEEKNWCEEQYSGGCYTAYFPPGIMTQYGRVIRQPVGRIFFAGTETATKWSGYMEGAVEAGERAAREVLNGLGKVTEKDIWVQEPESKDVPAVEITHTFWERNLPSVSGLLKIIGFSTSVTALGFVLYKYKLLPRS

Cytochrome P450 1A2 = biological target: T4, Cytochrome P450 1A2 (Homo sapiens, UniProt P05177); settings: bti-tn-5b1-4; note: in other assays of this panel Not Active means under 50% inhibition at 10 µM
T4 sequence (P05177 whole entry): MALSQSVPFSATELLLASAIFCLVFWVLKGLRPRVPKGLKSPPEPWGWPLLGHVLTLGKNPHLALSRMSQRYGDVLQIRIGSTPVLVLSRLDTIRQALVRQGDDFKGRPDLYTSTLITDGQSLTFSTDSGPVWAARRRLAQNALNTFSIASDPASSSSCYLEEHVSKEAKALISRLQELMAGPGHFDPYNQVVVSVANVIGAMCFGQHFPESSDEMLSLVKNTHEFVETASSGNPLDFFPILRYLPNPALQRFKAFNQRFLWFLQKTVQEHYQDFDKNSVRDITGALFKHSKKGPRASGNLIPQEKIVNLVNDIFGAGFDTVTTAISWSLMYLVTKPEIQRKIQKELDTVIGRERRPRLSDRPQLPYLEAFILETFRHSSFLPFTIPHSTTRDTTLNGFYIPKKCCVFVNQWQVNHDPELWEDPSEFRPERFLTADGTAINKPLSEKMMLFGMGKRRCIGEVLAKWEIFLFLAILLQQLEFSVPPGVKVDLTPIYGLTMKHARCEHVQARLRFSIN

Sequence of Cytochrome P450 2D6 (P10635 whole entry): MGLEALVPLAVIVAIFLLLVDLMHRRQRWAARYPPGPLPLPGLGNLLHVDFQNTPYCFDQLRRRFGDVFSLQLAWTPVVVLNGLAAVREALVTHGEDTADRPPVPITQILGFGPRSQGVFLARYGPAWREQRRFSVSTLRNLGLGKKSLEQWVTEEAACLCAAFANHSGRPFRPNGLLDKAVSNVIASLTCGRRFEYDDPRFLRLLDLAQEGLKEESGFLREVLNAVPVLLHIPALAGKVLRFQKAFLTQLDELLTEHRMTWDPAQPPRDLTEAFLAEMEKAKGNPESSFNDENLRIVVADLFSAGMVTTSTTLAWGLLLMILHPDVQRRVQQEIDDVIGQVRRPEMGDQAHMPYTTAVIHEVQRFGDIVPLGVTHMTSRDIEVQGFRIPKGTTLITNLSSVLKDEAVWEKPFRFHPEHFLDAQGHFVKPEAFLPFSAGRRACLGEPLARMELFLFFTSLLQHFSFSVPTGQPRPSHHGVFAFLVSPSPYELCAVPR

N=C(N)NCCCCNC(=N)N.O=S(=O)(O)O [ARCAINE SULFATE]
Not Active: IC50 [1] | Ki [1] | IC50 (Carbonic anhydrase 2) | IC50 [2] | IC50 (Cytochrome P450 2D6) | Ki (Cytochrome P450 2D6) | IC50 [3] | IC50 [4] | IC50 [5] | Ki [5] | IC50 [6] | IC50 [7] | Ki [7] | IC50 [8] | IC50 (Cytochrome P450 1A2) | Ki (Cytochrome P450 1A2)

CC(C)(Oc1ccc(CCNC(=O)c2ccc(Cl)cc2)cc1)C(=O)O [BEZAFIBRATE]
Not Active: IC50 [1] | Ki [1] | IC50 (Carbonic anhydrase 2) | IC50 [2] | IC50 (Cytochrome P450 2D6) | Ki (Cytochrome P450 2D6) | IC50 [3] | IC50 [4] | IC50 [5] | Ki [5] | IC50 [6] | IC50 [7] | Ki [7] | IC50 [8] | IC50 (Cytochrome P450 1A2) | Ki (Cytochrome P450 1A2)

CC1=Nc2ccc(Cl)cc2S(=O)(=O)N1 [DIAZOXIDE]
Not Active: IC50 [1] | Ki [1] | IC50 (Carbonic anhydrase 2) | IC50 [2] | IC50 (Cytochrome P450 2D6) | Ki (Cytochrome P450 2D6) | IC50 [3] | IC50 [4] | IC50 [5] | Ki [5] | IC50 [6] | IC50 [7] | Ki [7] | IC50 [8] | IC50 (Cytochrome P450 1A2) | Ki (Cytochrome P450 1A2)

CC(C)n1c(/C=C/C(O)CC(O)CC(=O)O)c(-c2ccc(F)cc2)c2ccccc21 (stereo not drawn) [FLUVASTATIN]
Not Active: IC50 [1] | Ki [1] | IC50 (Carbonic anhydrase 2) | IC50 [2] | IC50 (Cytochrome P450 2D6) | Ki (Cytochrome P450 2D6) | IC50 [3] | IC50 [4] | IC50 [5] | Ki [5] | IC50 [6] | IC50 [7] | Ki [7] | IC50 [8] | IC50 (Cytochrome P450 1A2) | Ki (Cytochrome P450 1A2)

NCC1(CC(=O)O)CCCCC1 [GABAPENTIN]
Not Active: IC50 [1] | Ki [1] | IC50 (Carbonic anhydrase 2) | IC50 [2] | IC50 (Cytochrome P450 2D6) | Ki (Cytochrome P450 2D6) | IC50 [3] | IC50 [4] | IC50 [5] | Ki [5] | IC50 [6] | IC50 [7] | Ki [7] | IC50 [8] | IC50 (Cytochrome P450 1A2) | Ki (Cytochrome P450 1A2)

CC1COc2c(N3CCN(C)CC3)c(F)cc3c(=O)c(C(=O)O)cn1c23 (stereo not drawn) [OFLOXACIN]
Not Active: IC50 [1] | Ki [1] | IC50 (Carbonic anhydrase 2) | IC50 [2] | IC50 (Cytochrome P450 2D6) | Ki (Cytochrome P450 2D6) | IC50 [3] | IC50 [4] | IC50 [5] | Ki [5] | IC50 [6] | IC50 [7] | Ki [7] | IC50 [8] | IC50 (Cytochrome P450 1A2) | Ki (Cytochrome P450 1A2)

O=C1NC(=O)C(c2ccccc2)(c2ccccc2)N1 [PHENYTOIN]
Not Active: IC50 [1] | Ki [1] | IC50 (Carbonic anhydrase 2) | IC50 [2] | IC50 (Cytochrome P450 2D6) | Ki (Cytochrome P450 2D6) | IC50 [3] | IC50 [4] | IC50 [5] | Ki [5] | IC50 [6] | IC50 [7] | Ki [7] | IC50 [8] | IC50 (Cytochrome P450 1A2) | Ki (Cytochrome P450 1A2)

CN1C(C(=O)Nc2ccccn2)=C(O)c2ccccc2S1(=O)=O [PIROXICAM]
Not Active: IC50 [1] | Ki [1] | IC50 (Carbonic anhydrase 2) | IC50 [2] | IC50 (Cytochrome P450 2D6) | Ki (Cytochrome P450 2D6) | IC50 [3] | IC50 [4] | IC50 [5] | Ki [5] | IC50 [6] | IC50 [7] | Ki [7] | IC50 [8] | IC50 (Cytochrome P450 1A2) | Ki (Cytochrome P450 1A2)
